We go through 30 compounds from ChEMBL document CHEMBL1124120, “Mapping of the beta 2-adrenoceptor on Chang liver cells. Differences between high- and low-affinity receptor states” (J Med Chem, 1988).

Beta-2 adrenergic receptor (Bos taurus), sequence (Q28044 whole entry, looked up): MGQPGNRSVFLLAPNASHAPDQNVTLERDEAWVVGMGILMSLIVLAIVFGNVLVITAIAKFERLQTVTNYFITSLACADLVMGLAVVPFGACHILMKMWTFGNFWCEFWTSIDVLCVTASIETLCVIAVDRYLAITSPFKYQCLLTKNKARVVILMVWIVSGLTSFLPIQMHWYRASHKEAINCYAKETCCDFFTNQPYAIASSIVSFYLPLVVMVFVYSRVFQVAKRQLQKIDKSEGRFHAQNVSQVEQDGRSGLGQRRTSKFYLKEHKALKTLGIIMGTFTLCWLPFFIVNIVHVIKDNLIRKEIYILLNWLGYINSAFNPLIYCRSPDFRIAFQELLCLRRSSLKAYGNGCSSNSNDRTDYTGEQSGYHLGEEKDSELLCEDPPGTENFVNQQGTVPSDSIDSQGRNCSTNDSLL
Beta-2 adrenergic receptor (Homo sapiens), sequence (P07550 whole entry, looked up): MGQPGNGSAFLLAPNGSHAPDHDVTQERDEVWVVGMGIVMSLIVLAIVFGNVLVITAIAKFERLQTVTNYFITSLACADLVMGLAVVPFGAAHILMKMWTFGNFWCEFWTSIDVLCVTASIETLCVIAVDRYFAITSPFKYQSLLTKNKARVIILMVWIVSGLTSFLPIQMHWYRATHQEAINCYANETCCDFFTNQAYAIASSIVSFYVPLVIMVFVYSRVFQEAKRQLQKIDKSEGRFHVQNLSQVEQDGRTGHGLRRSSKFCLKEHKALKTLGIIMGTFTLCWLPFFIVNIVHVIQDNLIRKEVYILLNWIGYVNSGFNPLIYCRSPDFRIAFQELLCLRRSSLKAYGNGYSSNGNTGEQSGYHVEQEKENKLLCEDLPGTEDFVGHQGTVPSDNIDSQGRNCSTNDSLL

The first assay has as its target Beta-2 adrenergic receptor (Homo sapiens) (UniProt P07550).
Settings: not given
For the compound `CNC[C@H](O)c1ccc(O)c(O)c1`, the -Delta G came to 10.1. Same read-out and setting: in the case of `NC[C@H](O)c1ccc(O)c(O)c1` it was 8.64; in that of `CC(C)(C)NCC(O)c1ccc(O)c(C(N)=O)c1` (racemic), 11.2; in that of `CC(C)(C)NCC(O)c1ccc(O)c(N)c1` (racemic), 9.69. The same measure, in the same setting: in the case of `CC(C)(C)NCC(O)c1ccc(O)c(O)c1` (racemic) it was 11.7; in that of `CC(C)NCC(O)c1cc(Cl)c(N)c(Cl)c1` (racemic), 11.1.

The compound `CC(C)NCC(O)c1cc(O)cc(O)c1` (racemic) came in with a -Delta G of 10.7. `CC(C)NCC(O)c1ccc(O)c(CO)c1` (racemic) came in with a -Delta G of 9.6. Same read-out and setting: in the case of `CC(C)NCC(O)c1ccc(O)c(N)c1` (racemic) it was 9.13.

Compound `CC(C)NCC(O)c1ccc(O)cc1` (racemic) gave a -Delta G of 9.76.

In turn, `CNc1cc(C(O)CNC(C)(C)C)ccc1O` (racemic) displayed a -Delta G of 10.5.

A further assay has the same target.
Settings: not given
The source holds these as a separate data set.
Compound `C=CCc1ccccc1OCC(O)CNCC(C)(C)N` (stereo not given) came in with a -Delta G of 9.54. In turn, `CC(C)(C)NCC(O)c1ccccc1Cl` (stereo not given) returned a -Delta G of 9.17. Compound `CC(C)NCC(O)COc1cccc2[nH]ccc12` (stereo not given) returned a -Delta G of 12.8.

Take `CCCc1ccccc1OCC(O)CNC(C)C` (stereo not given): the -Delta G came to 12.9. `CNC[C@H](O)c1ccc(O)c(O)c1` showed a -Delta G of 6.92. For `NC[C@H](O)c1ccc(O)c(O)c1`, the -Delta G is 6. As for `CC(C)(C)NCC(O)COc1cccc2[nH]c(C#N)c(I)c12` (racemic), the -Delta G came out at 15.2. Still for that read-out and setting: in the case of `CC(C)(C)NCC(O)c1cc(Cl)c(O)c(Cl)c1` (racemic) it was 11.1. On the same count and under the same terms, in the case of `CC(C)(C)NCC(O)c1ccc(O)c(C(N)=O)c1` (racemic) it was 9.54; in that of `CC(C)(C)NCC(O)c1ccc(O)c(N)c1` (racemic), 7.73.

`CC(C)(C)NCC(O)c1ccc(O)c(O)c1` (racemic) showed a -Delta G of 8.5. With `CC(C)(N)CNCC(O)COc1cccc2[nH]ccc12` (racemic), the -Delta G is 10.1. Take `CC(C)NCC(O)c1cc(Cl)c(N)c(Cl)c1` (racemic): the -Delta G came to 9.08.

`CC(C)NCC(O)c1cc(O)cc(O)c1` (racemic) came in with a -Delta G of 7.19. With `CC(C)NCC(O)c1ccc(O)c(CO)c1` (racemic), the -Delta G was 7.41.

As for `CC(C)NCC(O)c1ccc(O)c(N)c1` (racemic), the -Delta G is 7.17. Consider `CC(C)NCC(O)c1ccc([N+](=O)[O-])cc1` (racemic), for which the -Delta G is 8.23. Still for that read-out and setting: in the case of `CC(C)NCC(O)c1cccc(O)c1` (racemic) it was 7.05; in that of `CC(C)NC[C@H](O)COc1ccc(O)cc1` (racemic), 9.76. Same read-out and setting: in the case of `CC(Cc1ccc(O)cc1)NCC(O)c1cc(O)cc(O)c1` (racemic) it was 8.28. Same read-out and setting: in the case of `CNc1cc(C(O)CNC(C)(C)C)ccc1O` (racemic) it was 9.39; in that of `Cc1cc(C)cc(OCC(O)CNC(C)C)c1` (racemic), 10.4; in that of `Cc1cccc(OCC(O)CNC(C)C)c1` (racemic), 11.4.

Another assay addresses Beta-2 adrenergic receptor (Bos taurus) (UniProt Q28044). The conditions noted are these: Muscle tissue.
Description: Change in Gibb's free energy at Low affinity beta-2-adrenoceptor in the membranes of bovine skeletal muscle preparation
Compound `C=CCc1ccccc1OCC(O)CNC(C)C` (stereo not given) came in with a -Delta G of 13.3. Regarding `CCCc1ccccc1OCC(O)CNC(C)C` (stereo not given), the -Delta G worked out at 13.1. On the same count and under the same terms, in the case of `CC(C)(C)NCC(O)c1cc(Cl)c(N)c(Cl)c1` (racemic) it was 11; in that of `CC(C)(C)NCC(O)c1cc(Cl)c(O)c(Cl)c1` (racemic), 10.5; in that of `CC(C)(C)NCC(O)c1cc(O)cc(O)c1` (racemic), 8.13.

Consider `CC(C)(C)NCC(O)c1ccc(O)c(CO)c1` (racemic), for which the -Delta G was 9.34. Still for that read-out and setting: in the case of `CC(C)(C)NCC(O)c1ccc(O)c(N)c1` (racemic) it was 8.5; in that of `CC(C)(C)NCC(O)c1ccc(O)c(O)c1` (racemic), 9.29; in that of `CC(C)NCC(O)c1cc(Cl)c(N)c(Cl)c1` (racemic), 10.7. On the same count and under the same terms, in the case of `CC(C)NCC(O)c1ccc(NS(C)(=O)=O)cc1` (racemic) it was 9.32; in that of `CC(C)NCC(O)c1ccc(O)c(N)c1` (racemic), 7.93.

For the compound `CC(C)NCC(O)c1ccc2ccccc2c1` (racemic), the -Delta G came to 10.1. Regarding `CC(C)NCC(O)c1cccc(O)c1` (racemic), the -Delta G stood at 9. Consider `CC(C)NC[C@H](O)COc1ccc(O)cc1` (racemic), for which the -Delta G worked out at 8.9.

Regarding `Cc1cc(C)cc(OCC(O)CNC(C)C)c1` (racemic), the -Delta G was determined as 11.8. In turn, `Cc1cccc(OCC(O)CNC(C)C)c1` (racemic) had a -Delta G of 10.9.
